The test system of one assay is 1321N1 cells. The experiment in a line: Colocalization of LRPep2 with caveolae and lysosomes, 1321N1. The assay is classed as cell-based. The method, then:
(§1) Cells were first incubated with LRPep2-rho, as described above (cf. 2.4. Evaluation of the endocytosis potential of peptides LRPep1 and LRPep2), before being permeabilized with methanol. Then, cells were blocked with PBS supplemented with 5% NGS and 0.3% Triton X-100. Caveolae and lysosomes were detected using anti-caveolin 1 and anti-LAMP1 (Lysosomal-Associated Membrane Protein 1) antibodies, respectively, made in rabbit (both from Santa Cruz, Heidelberg, Germany) and incubated overnight at 4 µg/mL in PBS. Finally, cells were incubated for 1 h with an anti-rabbit IgG made in goat coupled to fluorescein (Vector Labconsult) at 20 µg/mL in phosphate buffer pH 7.8 supplemented with 0.5% BSA. Cells were mounted with Vectashield mounting medium with DAPI.

For a further assay, the system named is HepaRG cells. The experiment in a line: Colocalization of LRPep2 with caveolae and lysosomes, HepaRG. The assay is classed as cell-based. The conditions noted are these: p < 0.001. The method, then:
as §1

In another assay the test system is ACBRI376 cells. Description: Colocalization of LRPep2 with caveolae and lysosomes, ACBRI376. The assay is classed as cell-based, human. The method, then:
as §1

In the next assay the test system is N18(H) cells. Description: Colocalization of LRPep2 with caveolae and lysosomes, N18(H). The assay is classed as cell-based. Conditions: differentiated N18(H) cells. Here is the method: Experiments on N18(H) cells were performed after differentiation. Cells were immobilized on the appropriate support, and the differentiation was induced the second day, using medium containing 0.2% FBS for 48 h.
as §1

Assay [1] relates to HUVEC, HepaRG, ACBRI376 and 1321N1 cells. Description: Endocytosis of rhodamine-coupled peptides, fluorescence microscopy (RRFL). The assay is classed as cell-based, human. The conditions noted are these: all studied cell models, p < 0.001 in HepaRG, p < 0.05 in HUVEC. Here is the method:
Cells were seeded onto coverslips coated with collagen (0.2 mg/mL, Sigma-Aldrich, Overijse, Belgium) at a density of 8 × 10^5 cells/well and grown for 3 days.
Cells were incubated for 2 h at 37 °C in the dark with LRPep1-rho or LRPep2-rho (peptides coupled to rhodamine, 200 µM in culture medium for HepaRG and HUVEC, 25 µM for ACBRI376 and 1321N1); the negative control was incubated with culture medium. The use of the rhodamine as a fluorescent probe was based on our previous experience with labeled peptides. Cells were rinsed two times with PBS (per liter: 8 g NaCl, 0.2 g KCl, 2.31 g Na2HPO4 × 12 H2O, 0.2 g KH2PO4, pH 7.4). […]
Fluorescence was observed using a Leica DM2000 microscope equipped with a light source EL 6000 and a DFC 425C camera (Leica Microsystems, Groot Bijgaarden, Belgium).
Figure 4 Endocytosis of the peptides LRPep1-rho and LRPep2-rho (stained in red) in (A) HUVEC and HepaRG cells and (B) ACBRI376 and 1321N1 cells. […] (C–F) The endocytosis of peptides, as well as the expression of LDLR, was semi-quantitatively evaluated by the measurement of fluorescent labeling using the ImageJ software and was normalized to the number of cells and to the background, giving the relative ratio of fluorescent labeling (RRFL); *: p < 0.05, **: p < 0.001. […]

The results in this text go back to paper PMC7407834, “Development of an LDL Receptor-Targeted Peptide Susceptible to Facilitate the Brain Access of Diagnostic or Therapeutic Agents” (Biology, 2020).

Turning to HPWCCGLRLDLR [LRPep2], the Endocytosis pathway result in the assay with 1321N1 cells was “both pathways”; with HepaRG cells it was “significant increase of fluorescence was observed for lysosomes”; with ACBRI376 cells (ACBRI376, caveolin-1 fluorescence increased (p < 0.05), LAMP1 decreased (p < 0.05)), “endocytosed by the non-degradation pathway involving caveolae”; in the assay on N18(H) cells, “both pathways”. Moreover, the “Mander's coefficient (M), colocalization of rhodamine with caveolin-1” value in the assay with ACBRI376 cells (ACBRI376 cells, LRPep2-rho 25 µM, 2 h 37 °C, Figure S4) was determined as 82.7%. Also, the “Endocytosis of the peptide compared with the other peptide” value in assay [1] is reported as “more effective than that of peptide LRPep1”.
